Values after ≈ are worked out from the molar mass of the structure shown. Like-named read-outs stand apart in the source and are kept apart here.
What was measured:
[1] = tested on: M. tuberculosis H37Rv-GFP; assay: microbe, parasite or virus in culture; assay type: cell-based, Mycobacterium tuberculosis; conditions: for inhibition at 20 µM / inhibition at 0.2 µM / inhibition at 2 µM: Macrophage; for inhibition at 0.2 µM: read-out: QIM Confirm % Inhibition 0.2 uM; for inhibition at 2 µM: read-out: QIM Confirm % Inhibition 2 uM
[2] = tested on: M. tuberculosis H37Rv-GFP; assay: microbe, parasite or virus in culture; assay type: cell-based; conditions: Mycobacterium tuberculosis; for inhibition at 0.2 µM: read-out: QUM Confirm % Inhibition 0.2 uM; for inhibition at 2 µM: read-out: QUM Confirm % Inhibition 2 uM; for inhibition at 20 µM: read-out: QUM Confirm % Inhibition 20 uM
Raw264.7 cells = assay: Cell number (CellNb) from image analysis of the phenotypic cell-based assay
[3] = Mycobacterium tuberculosis, H37RV, read-out: Primary QIM % Inhibition
[4] = Mycobacterium tuberculosis, H37RV
[5] = Mycobacterium tuberculosis, H37RV, read-out: QIM Confirm % Inhibition 20 uM
[6] = Mycobacterium tuberculosis, H37RV, confirmation, 0.2 uM, intracellular
[7] = Mycobacterium tuberculosis, H37RV, confirmation, 2 uM, intracellular
[8] = Mycobacterium tuberculosis, H37RV, confirmation, 20 uM, read-out: QIM Confirm % Inhibition 20 uM
[9] = Mycobacterium tuberculosis, H37RV, primary screen, 20 μM, read-out: Primary QIM % Inhibition

SMILES	inhibition at 0.2 µM [2]	inhibition at 2 µM [2]	inhibition at 20 µM [2]	inhibition at 0.2 µM [1, 6]	inhibition at 2 µM [1, 7]	inhibition at 20 µM [1, 8]	inhibition at 20 µM [1, 9]	QIM Confirm CellNb 0.2 uM (Raw264.7 cells; confirmation, 0.2 uM)	QIM Confirm CellNb 2 uM (Raw264.7 cells; confirmation, 2 uM)	QIM Confirm CellNb 20 uM (Raw264.7 cells; confirmation, 20 uM)	Primary QIM CellNb (Raw264.7 cells; primary screen, 20 μM)	other results
O=C(NCCOCc1ccccc1)c1cc([N+](=O)[O-])cc([N+](=O)[O-])c1 [IPK 000 027 91]	65.8%	97.6%	75%	–	–	–	–	–	–	–	–	inhibition at 20 µM [1, 3]: 89%; inhibition at 0.2 µM [1, 4]: 14.2%; inhibition at 2 µM [1, 4]: 98.5%; inhibition at 20 µM [1, 5]: 46.1%; Primary QIM CellNb (Raw264.7 cells): 410.8; QIM Confirm CellNb 0.2 uM (Raw264.7 cells): 295.3; QIM Confirm CellNb 2 uM (Raw264.7 cells): 434.1; QIM Confirm CellNb 20 uM (Raw264.7 cells): 325.6
CCc1nnc(NS(=O)(=O)c2ccc(N)cc2)s1 [IPK 000 035 58]	45.1%	46.4%	65.3%	5.1%	34.4%	2.8%	-51.3%	292.3	330.0	279.9	104.0	–
CC(C)(C)C(=O)Nc1ccccc1C(=O)N1CCOCC1 [IPK 000 021 87]	49.1%	42.9%	41.9%	15.4%	29.8%	96.5%	90.2%	305.3	403.4	609.0	405.0	–
O=C(Nc1ccc([N+](=O)[O-])cc1)C12CC3CC(CC(C3)C1)C2 [IPK 000 022 33]	35.7%	45.4%	74.2%	30.3%	33.5%	90%	66%	315.6	472.3	517.1	372.0	–
O=C(N/N=C/c1cccc(Br)c1)C1C2CC/C=C\CCC21 (stereo not drawn) [IPK 000 010 06]	39.5%	43.1%	39.2%	17.1%	18%	81.8%	81%	412.0	344.9	380.9	322.8	–
CCOC(=O)/N=C(\NC(C)=O)c1cccc(Cl)c1 [IPK 000 033 61]	51.6%	37.6%	67.1%	16.2%	13.8%	62.9%	31.6%	210.8	434.1	111.8	188.3	–
CC1=NN(C(=O)c2ccncc2)C(O)(C(F)(F)F)C1 (stereo not drawn) [IPK 000 009 78]	30%	61.1%	100%	17%	50.2%	88.6%	103%	325.5	414.4	376.1	454.5	–
O=C(NN=C1CCCCC1)c1ccncc1 [IPK 000 013 72]	57.7%	73.9%	98%	63.2%	104%	101%	82.2%	448.5	541.6	457.3	355.5	–
COc1cccc(OCCNC(=O)c2cc([N+](=O)[O-])cc([N+](=O)[O-])c2)c1 [IPK 000 027 77]	40.2%	96.8%	100%	–	–	–	–	–	–	–	–	inhibition at 20 µM [1, 3]: 89.1%; inhibition at 0.2 µM [1, 4]: -12.6%; inhibition at 2 µM [1, 4]: 47.7%; inhibition at 20 µM [1, 5]: 86.3%; Primary QIM CellNb (Raw264.7 cells): 378.0; QIM Confirm CellNb 0.2 uM (Raw264.7 cells): 218.1; QIM Confirm CellNb 2 uM (Raw264.7 cells): 315.3; QIM Confirm CellNb 20 uM (Raw264.7 cells): 322.3
O=[N+]([O-])c1cc(C(F)(F)F)cc([N+](=O)[O-])c1Sc1nc(-c2ccccc2)c[nH]1 [IPK 000 001 32]	43.9%	41.2%	89.1%	10.3%	0.2%	50.7%	25.4%	241.4	208.5	113.8	88.3	–
Clc1ccc(Nc2nc3nonc3nc2Nc2ccc(Cl)c(Cl)c2)cc1Cl [IPK 000 003 89]	44%	76.5%	67%	20.1%	86.6%	84.6%	27.7%	265.3	200.6	103.0	72.5	–
O=C(NN=C1CCCC1)c1ccncc1 [IPK 000 013 70]	46.3%	79.4%	67.6%	50.5%	98.1%	103%	88.3%	412.6	510.9	518.5	309.3	–
O=C(N/N=C/c1ccco1)c1ccncc1 [IPK 000 013 67]	49.4%	90.2%	69.7%	–	–	–	–	–	–	–	–	inhibition at 20 µM [1, 3]: 98.7%; inhibition at 0.2 µM [1, 4]: 84.1%; inhibition at 2 µM [1, 4]: 102%; inhibition at 20 µM [1, 5]: 66.7%; Primary QIM CellNb (Raw264.7 cells): 358.0; QIM Confirm CellNb 0.2 uM (Raw264.7 cells): 452.5; QIM Confirm CellNb 2 uM (Raw264.7 cells): 545.1; QIM Confirm CellNb 20 uM (Raw264.7 cells): 457.3
O=C(Oc1cccc2cccnc12)c1cccc([N+](=O)[O-])c1 [IPK 000 018 66]	39.3%	72%	99.6%	8.6%	0.4%	16.7%	-26.8%	258.1	296.6	130.4	63.3	–
CC(C)c1ccc(CNC(=O)c2cc([N+](=O)[O-])cc([N+](=O)[O-])c2)cc1 [IPK 000 027 78]	71.7%	97.5%	78.2%	33%	99.3%	96.3%	79.6%	366.0	543.5	499.4	332.0	–
NNC(=O)c1ccncc1 [INH, isoniazid, reference compound]	–	–	–	–	–	–	–	–	–	–	–	minimal inhibitory concentration (MIC) [1]: 0.16 ± 0.05 µg/mL (≈ 1.17 µM); MIC ([1]; Mycobacterium tuberculosis, H37RV, 120 h, read-out: minimal inhibitory concentration (MIC)): 0.1 µg/mL (≈ 0.729 µM); MIC ([2]; read-out: minimal inhibitory concentration (MIC)): 0.1 µg/mL (≈ 0.729 µM)
